Here are results for two compounds from US9081736B2, “Modeling of mPGES-1 three-dimensional structures: applications in drug design and discovery” (The University of Kentucky Research Foundation, priority 2007, dated 2015).

Substitutions are numbered along the chain they refer to.

In assay [1] the target is T1, mPGES-1 Q36E mutant (Homo sapiens, UniProt O14684, Q36E).
T1 sequence (O14684 1-152 Q36E): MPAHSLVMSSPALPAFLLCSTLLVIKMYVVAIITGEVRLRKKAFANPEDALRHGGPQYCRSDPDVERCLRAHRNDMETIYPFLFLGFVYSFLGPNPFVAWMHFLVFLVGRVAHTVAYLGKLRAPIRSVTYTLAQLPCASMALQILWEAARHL
In words: Activity assay, saturation kinetics for PGH2, Q36E mutant. The assay is classed as biochemical. The following applies: 2.5 mM GSH, 1-500 μM PGH2, errors expected to be very large, read-out: Experimental KM, this work. On the procedure: (§1) Expression and Preparation for the Membrane Fraction of mPGES-1 and its Mutants in E. coli: The wild-type mPGES-1 and its mutant plasmids from XLI-Blue were transformed into M15 E. coli cells. Cells were grown in 500 ml TB media containing 100 μg/ml ampicillin and 25 μg/ml kanamycin at 37° C. with shaking at 270 rpm until OD reached 0.8. IPTG was added to a final concentration of 2 mM and cells were allowed to grow for additional 3 hours at 37° C. Cells were then harvested by centrifugation at 5000 g for 15 min at 4° C. […] The cells were broken by sonication, and then the cell lysate was cleared by centrifugation at 12,500 g for 10 min. […] Total protein concentration of the membrane fraction was determined by coomassie protein assay according to the manufacture's instruction (Bio-Rad) with BSA as a standard.
(§2) The reaction contents were 1:2500 diluted, from which 50 μl aliquot was used for quantification of […] concentration by EIA assay. […] The KM values of wild-type mPGES-1 and its mutants were calculated by using the GraphPad Prism 4.01 program.

In assay [2] the target is T2, mPGES-1 Q134E mutant (Homo sapiens, UniProt O14684, Q134E).
T2 sequence (O14684 1-152 Q134E): T1 sequence (O14684 1-152 Q36E) with E36Q, Q134E
In words: Activity assay, saturation kinetics for PGH2, Q134E mutant. The format is biochemical. The conditions noted are these: 2.5 mM GSH, 1-500 μM PGH2, errors expected to be very large, read-out: Experimental KM, this work. On the procedure: as §1, §2

Assay [3] concerns the target T3, wild-type mPGES-1 (Homo sapiens, UniProt O14684).
T3 sequence (O14684 1-152): T1 sequence (O14684 1-152 Q36E) with E36Q
In words: Activity assay, saturation kinetics for PGH2, wild-type mPGES-1. The format is biochemical. On the set-up: The specific oligonucleotide primers to full length of mPGES-1 were synthesized; made in house; host or cells: E. coli M15 (membrane fraction). The conditions noted are these: 2.5 mM GSH, 1-500 μM PGH2, on ice, read-out: Experimental KM, this work. The procedure:
as §1, §2

In assay [4] the target is T4, mPGES-1 (Homo sapiens, UniProt O14684).
T4 sequence (O14684 1-152): T1 sequence (O14684 1-152 Q36E) with E36Q
The following applies: background statement; not selective for mPGES-1; cited from earlier work.

What is called Km is the substrate concentration at which the rate is half of its maximum. On to `CCCCC[C@H](O)/C=C/[C@@H]1[C@@H](C/C=C\CCCC(=O)O)[C@@H]2C[C@H]1OO2` [PGH2, prostaglandin H2], for which the Km is ~1610 µM in assay [1], ~734 µM in assay [2] and 130 µM in assay [3].
As for `CS(=O)(=O)Nc1ccc([N+](=O)[O-])cc1OC1CCCCC1` [NS-398], the “Ability to inhibit mPGES-1” value in assay [4] is given as “able to inhibit mPGES-1”.
